We go through one molecule from publication PMC4977052, “On the Utility of ToxCast™ and ToxPi as Methods for Identifying New Obesogens” (Environmental Health Perspectives, 2016).

Like-named read-outs stand apart in the source and are kept apart here.

One experiment deals with T1, GAL4-hRXRα (Homo sapiens, UniProt P19793).
T1 construct: expressed in transfected cells; host or cells: COS7
Briefly: GAL4-hRXRα activation, transient transfection luciferase reporter in COS7 cells. It counts as cell-based. How it is done:
pCMX-Gal4, pCMX-Gal4-mPPARγ, and pCMX-Gal4-hRXRα were previously described ([Grün et al. 2006]). Transient transfections were performed in COS7 cells as described ([Chamorro-García et al. 2012]). Briefly, COS7 cells were seeded at 15,000 cells per well in 96-well tissue culture plates in 10% calf bovine serum. The following day, cells were transfected in Opti-MEM at ~ 90% confluency. One microgram of CMX-GAL4 effector plasmid was co-transfected with 5 μg tk-(MH100)4-luciferase reporter and 5 μg of CMX-β-galactosidase transfection control plasmids in Opti-MEM® using Lipofectamine® 2000 reagent (Invitrogen™ Life Technologies, Carlsbad, CA, USA), following the manufacturer’s recommended protocol. All chemicals were solvated in dimethyl sulfoxide (DMSO). After overnight incubation, the medium was replaced with Dulbecco’s Modified Eagle Medium (DMEM; HyClone, Logan, UT, USA), 10% resin charcoal stripped fetal bovine serum (FBS) plus ligands at concentrations indicated in the figure legends for an additional 24 hr. DMSO concentration was maintained at 0.05% across all chemical treatments. Cells were lysed and assayed for luciferase and β-galactosidase activity as previously described ([Forman et al. 1995]). All transfections were performed in triplicate and reproduced in multiple experiments. Data are reported as fold induction or reduction over vehicle ([…]) controls ± SEM (standard error of the mean) using standard propagation of error ([Bevington and Robinson 2003]). […] The EC50, EC10, IC50, and IC10 values from NCGC and ToxCast™ are reported from gain AC50 and AC10 values in the ToxCast™ 2014 release ([Filer et al. 2014]).
Figure 4 ToxPi Chemical Activity on PPARγ and RXRα. The ability of a graded dose series of ToxPi chemicals to activate (A) GAL4-mPPARγ or (B) GAL4-hRXRα was tested in transiently transfected COS7 cells. (A, B) Data points are averages of triplicate transfections (three biological replicates). […] ToxPi chemicals were tested in 3-fold serial dilutions from 100 μM through 0.137 μM, with the final data point being 0.05% DMSO. Data are depicted as fold induction over vehicle (0.05% DMSO) controls ± SEM. (A) Rosiglitazone serves as a positive control activator for GAL4-mPPARγ. (B) LG100268 (2-[1-(3,5,5,8,8-Pentamethyl-5,6,7,8-tetrahydro-2-naphthyl)cyclopropyl]pyridine-5-carboxylic acid) serves as a positive control activator for GAL4-hRXRα. (C) EC50 and EC10 values calculated from A and B are reported and compared to other assays (see Figure S1). ATG, Attagene GAL-PPARγ or GAL-RXRα activation assay; NCGC, GeneBLAzer® GAL-PPARγ or GAL-RXRα activation assays. Triphenyltin was previously published ([Kanayama et al. 2005]).

The subject of a further experiment is 3T3-L1 preadipocytes. As to the kind of experiment: 3T3-L1 adipogenesis assay (lipid accumulation, adipogenic gene expression). Format: cell-based. Particulars: 0.02-20 μM, 5 days after MDI induction. Put shortly:
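After 2-day MDI induction with biotin and pantothenate, 3T3-L1 cells were treated 5 days with chemicals at 0.02–20 μM (0.1% DMSO; 10 μM if toxic). Lipid read as Nile red/Hoechst fluorescence ratio; adipogenic genes by QPCR, 2^ΔΔCt versus 36b4, normalized to DMSO.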

Experiment [1] deals with mouse bone marrow-derived mesenchymal stem cells (mBMSCs). Format: cell-based. Particulars: 14 days, Figure 7. The procedure:
A total of 8 × 10^4 cells/well mouse bone marrow-derived mesenchymal stem cells (mBMSCs) (OriCell™) were seeded in 12-well plates in basic medium: high-glucose DMEM (Hyclone) containing 10% calf bovine serum (Premium Select, Atlanta Biologicals), 100 IU/mL penicillin, 100 μg/mL streptomycin, and 1 mM sodium pyruvate. mBMSCs were induced to differentiate in differentiation media (low glucose αMEM containing 15% fetal bovine serum (Premium Select, Atlanta Biologicals), 100 IU/mL penicillin, 100 μg/mL streptomycin and 2 mM L-glutamine) with adipogenic cocktail (500 μM isometylbutylxanthine, 1 μM dexamethasone, 5 μg/mL insulin) and either 500 nM ROSI, 50 nM TBT or ToxCast™ chemicals (as noted for 3T3-L1 cells) for 14 days, replacing the media every 3 days.
Cells were either fixed in 3.7% formaldehyde in phosphate-buffered saline (PBS) for 30 min at room temperature (RT) for lipid quantitation, or homogenized in TriPure (Roche, Mannheim, Germany) for gene expression analysis. For lipid quantitation, fixed cells were washed twice with PBS and maintained in PBS overnight at 4°C to release residual phenol red. Background of cells were measured prior to staining. Cells were stained with 1 μg/mL Nile red (CAS No. 7385-67-3) (to detect lipid accumulation) and 1 μg/mL Hoechst 33342 (ThermoFisher Scientific) (to detect nuclei as a surrogate for cell number) in PBS for 15 min in the dark at RT and washed twice with PBS. […] Background values of Hoechst and Nile red were subtracted from the RFUs after staining and the ratio RFUNile Red:RFUHoechst was calculated. Data are represented as mean ± SEM. Total RNA was isolated using TriPure (Roche) as recommended by the manufacturer. Reverse transcription and quantitative real-time RT-PCR (QPCR) were performed using Transcriptor RT and SYBR® Green Master Mix (Roche). cDNA was quantitated in a LightCycler® 480 System (Roche Diagnostics, Basel, Switzerland) using primer sets listed in Table S4. Each primer set amplified a single band as determined by gel electrophoresis and melting curve analysis. QPCR data were analyzed using the 2^ΔΔCt method ([Livak and Schmittgen 2001]) relative to ribosomal protein 36b4, normalizing to 0.1% DMSO vehicle. Error bars represent the SEM from four to six biological replicates calculated using standard propagation of error ([Bevington and Robinson 2003]).

The test system of a further experiment is PPARγ. Particulars: ToxCast Phase I 2011 release; NA = not active; ref Knudsen et al. 2011; read-out: ATGT PPARγ AC50; cited from earlier work.
The next experiment concerns C/EBP. Set-up: method as in Knudsen et al. 2011. The note with it: ToxCast Phase I 2011 release; NA = not active; ref Knudsen et al. 2011; read-out: ATGC CEBP AC50; cited from earlier work.
Another experiment concerns PPRE. Set-up: method as in Knudsen et al. 2011. The note with it: ToxCast Phase I 2011 release; NA = not active; ref Knudsen et al. 2011; read-out: ATGC PPRE AC50; cited from earlier work.
Experiment [2] has as its system RXRα. Particulars: ref Filer et al. 2014, cited from earlier work.
Experiment [3] relates to RXRα. Particulars: cited from earlier work.

T1 sequence (P19793 with tags, fused parts or gaps limits assumed): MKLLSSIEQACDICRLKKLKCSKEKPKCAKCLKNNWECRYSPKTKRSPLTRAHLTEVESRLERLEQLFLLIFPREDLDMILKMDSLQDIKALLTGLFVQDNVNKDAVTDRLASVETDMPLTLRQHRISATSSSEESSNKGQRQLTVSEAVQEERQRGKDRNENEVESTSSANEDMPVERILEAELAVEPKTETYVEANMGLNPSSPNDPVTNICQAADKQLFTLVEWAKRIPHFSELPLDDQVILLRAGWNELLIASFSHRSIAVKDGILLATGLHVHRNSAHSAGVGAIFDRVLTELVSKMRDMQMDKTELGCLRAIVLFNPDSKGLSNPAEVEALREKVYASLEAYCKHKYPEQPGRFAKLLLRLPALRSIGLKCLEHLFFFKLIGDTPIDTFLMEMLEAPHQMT

On to `N#Cc1c[nH]cc1-c1cccc2c1OC(F)(F)O2` [Fludioxonil], for which, on GAL4-hRXRα (COS7, 100 μM through 0.137 μM), the “Activation of RXRα” value is recorded as “activated RXRα”. Moreover, the half-maximal effective concentration (EC50) was 14.3 µM at GAL4-hRXRα (COS7, ligands 24 hr, read-out: RXRα agonist: EC50, Fig 4B); 23.6 µM in the experiment on RXRα [2] (gain AC50, ToxCast 2014 release, read-out: RXRα agonist: EC50, ATG); 2.24 µM in the experiment on RXRα [3] (gain AC50, ToxCast 2014 release, ref Filer et al. 2014, read-out: RXRα agonist: EC50, NCGC). Moreover, the “RXRα agonist: EC10, Fig 4B” value on GAL4-hRXRα (COS7, computed from EC50) was found to be 5.42 µM. The AC50 is 14.3 µM at GAL4-hRXRα (Cos-7 transient transfection); 28 µM in the experiment on PPARγ; 21 µM with C/EBP; 24 µM with PPRE; 2.7 µM with RXRα [3] (ToxCast Phase I 2011 release, NA = not active, ref Knudsen et al. 2011, read-out: NCGC RXRα AC50). For the same molecule, at GAL4-hRXRα (Cos-7 transient transfection), the “Activation COS7 (result in words): RXRα activator” value is given as “RXRα activator”. Also, in the experiment on 3T3-L1 preadipocytes, the “Adipogenesis 3T3-L1 (result in words)” value is “Positive”. Moreover, the “Adipogenic differentiation of mBMSCs (result in words)” value in experiment [1] is given as “could differentiate these uncommitted stem cells into adipocytes”. Further, the “RXRα agonist: EC10, ATG” value in the experiment with RXRα [2] (AC10, ToxCast 2014 release) is 17.93 µM. The “RXRα agonist: EC10, NCGC” value with RXRα [3] (AC10, ToxCast 2014 release, ref Filer et al. 2014) was 1.20 µM.

In general, EC50 refers to the concentration needed to bring the measured effect to its halfway point. By AC50 is commonly meant the midpoint of the concentration-response curve, whichever way the signal moves.
